Patent US7153858B2, “Arylpiperazinyl compounds” (Epix Delaware, Inc., priority 2003, dated 2006)
“Also recorded” adds a separate entry of the source. Counter-ions that a name gives are not always drawn.

How the values were obtained:
Assay type in all cases: in vivo
C57B16/J mice = test: Elevated Plus Maze (EPM); conditions: for Closed Arm Entries / Total Entries / Open Arm Time / Proportion Open Arm Entries: vs vehicle
From the text: (§1) Young adult male C57B16/J mice from Jackson Laboratory, Bar Harbor, Me. were used in the Elevated Plus Maze; 129 svev mice from Taconic, Germantown, N.Y. were used in the Stress-induced Hyperthermia, Open Field, and the Tail Suspension tests, and DBA/2J mice from Jackson Laboratory, Bar Harbor, Me. were used in the Forced Swim test. All mice were received at the age of 6 weeks and were assigned unique identification numbers. Animals were housed 4 per cage in polycarbonate cages with filter tops, cagemate identification maintained by tail marks. Animals were acclimated for 7 days and given food and water ad libitum. Mice were examined prior to initiation of the study at 8 weeks of age to assure adequate health and suitability. During the course of the study, 12-hour light/12-hour dark cycles were maintained with the light on at 7:00 a.m. The room temperature was maintained between 20 and 23° C. with a relative humidity maintained between 30% and 70%. Chow and water were provided ad libitum.
(§2) In each test, animals were randomly assigned across treatment groups and balanced by cage number. Ten animals were used in each treatment group. Mice for the Open Field and Stress-induced hyperthermia studies were handled once daily for 2 consecutive days prior to the testing. Mice assigned to the Elevated plus maze experiment were not handled to increase the stress level at the time of the testing.
(§3) All compounds were dissolved in sterile injectable water, which served as the vehicle control. All solutions were prepared on the day of the experiments. […] In all tests except for the tail suspension (TS) test, drugs were administered acutely; in the TS test, Compound A was administered once daily for 3 days (test day inclusive) prior to testing. Thirty minutes pretreatment time was used in all tests except for SIH in which case compounds were given to the animals one hr before the test.
The elevated plus maze is a test commonly used to assess anxiety in rodents. The maze consists of two closed arms (l×w×h: 15 cm×6 cm×30 cm) and two open arms (6 cm w×30 cm l) forming a cross, with a square center platform (6×6 cm). Rodents naturally fear open spaces and tend to spend more time in the closed arms. Anxiolytics will attenuate this fear of open spaces and will increase the number of time spent in open arms. All visible surfaces are made of a black acrylic. Each arm of the maze is placed on a support column 50 cm above the floor. The light intensity was ˜100 lux above the open arms and ˜70 lux above the closed arms. Animals were brought to the experimental room at least 1 hr before the test in the home cage (food and water available). Mice were placed in the center of the elevated plus maze facing an open arm, tested once, one at a time for a 5 min test. The time in the open/closed arms and the number of entries in the open/closed arms were recorded via video camera and used as a measure of anxiety. Mice were returned to the home cage after testing and then to the colony room.
(§4) All data were analyzed by comparing the groups treated with the test substance to the vehicle control or reference treated groups. Statistical analysis was performed by ANOVA followed by Fisher's post-hoc test where appropriate. […] Data are represented as the means and standard error to the mean (s.e.m).

129 svev mice [1] = test: Stress-Induced Hyperthermia (SIH); conditions: 1 hr before test
From the text: as §1, §2, §3
Mice have a natural hyperthermic response to stress, which has been proposed as a measure of stress-induced anxiety (Olivier, Zethof, Ronken & van der Heyden, European Journal of Pharmacology 342(2–3): 177–82, 1998). Anxiolytics are known to decrease this hyperthermic response to stress. This test involves two measures of rectal temperature repeated in the same animal within a 10 min period. On the day prior to testing, animals were brought to the experimental room 1 hr prior to scheduled lights out and singly housed overnight with food and water ad libitum. On the morning of the experiment, animals were first injected with treatment compound or vehicle. One hr post treatment, the animal was removed from the holding cage and held in a supine position and had rectal temperature measured by using a rectal probe attached to a PhysiTemp thermometer (Fisher Scientific). For each animal tested, the rectal probe was cleaned with an alcohol pad and lubricated with sterile K-Y jelly and slowly inserted into the animal's rectum at a length of approximately 3–5 mm. The probe remained within the animal's rectum for approximately 5 sec or until body temperature reached stability, and the baseline rectal temperature (T1) was recorded. The animal was immediately placed back to the holding cage and after a 10-min interval a second rectal temperature (T2) was taken using the same procedure as T1. The animal was then returned to the home cage and at the completion of the experiment returned to the colony room.
as §4

129 svev mice [2] = test: Open Field (OF), general motor activity; conditions: 40 min session
From the text: as §1, §2, §3
The open field activity monitor system (Med Associates, Inc.) measured general motor activity. The test was performed under normal lighting conditions (400 lux). Mice were brought into the experimental room and allowed at least 1 hr of acclimation. Thirty min after treatment, each mouse was placed into the testing enclosure (l×w×h: 27 cm×27 cm×20 cm) with an infrared beam array that automatically monitors the animal's activity. Eight animals of balanced treatment were tested at one time. The test session lasted 40 min and animals were returned to the home cages at the end of the session. The critical measures of this test includes locomotion (total distance traveled), rearing (vertical activity), number of center entries and percent time spent in the center area of the OF arena.
as §4

Coloboma mice = test: Open Field, hyperlocomotor activity of Coloboma mutant mice (ADHD model); conditions: vs vehicle
From the text: The mice used in the current study are the offspring of breeding pairs (C3H/HeSnj-Cm) originally purchased from Jackson Laboratory, Bar Harbor, Me. Of the 48 mice tested, 22 were male and 26 were female, at age between 12–20 weeks old. These animals were weaned at 21 days age and were housed in 2 to 4 littermates per cage in our animal facility where standard animal husbandry was maintained. The colony room was kept under 12-hour light/12-hour dark cycles with the lights on at 7:00 a.m. Temperature was maintained between 20 and 23° C. with a relative humidity maintained between 30% and 70%. Animals received food chow and water provided ad libitum.
All compounds were dissolved in sterile injectable water, which served as the vehicle control. All solutions were prepared on the day of the experiments. Compound A as well as its vehicle (water) was given to animals orally (PO) in a volume of 10 ml/kg body weight; the reference compound was given to animals intraperitoneally (IP). […]
The study was conducted over two consecutive days with animals tested between 10:00 a.m. and 5:00 p.m. on each day. […] The results were recorded automatically and processed by microcomputer.
The open field activity monitor system (Med Associates, Inc.) measured general motor activity. […]
All data were analyzed by comparing the groups treated with the test substance to the vehicle control or reference treated groups. […]

[3] = test system: 129 svev mice (tail suspension), DBA/2J mice (forced swim); test: Tail suspension and forced swim test; conditions: PO; tail suspension: once daily for 3 days
From the text: as §1
All compounds were dissolved in sterile injectable water, which served as the vehicle control. All solutions were prepared on the day of the experiments. […] In all tests except for the tail suspension (TS) test, drugs were administered acutely; in the TS test, Compound A was administered once daily for 3 days (test day inclusive) prior to testing. […]

[4] = reference buspirone 3, 10 and 20 mg/kg PO
[5] = reference buspirone 20 mg/kg IP
[6] = reference buspirone 20 mg/kg IP, listed as buspirone

With `O=C1CC2(CCCC2)CC(=O)N1CCCCN1CCN(c2ncccn2)CC1` [Buspirone, reference compound] the “Closed Arm Entries” value (C57B16/J mice; 20 mg/kg PO) was “significantly decreased”, the “Total Entries” value (C57B16/J mice; 20 mg/kg PO) was “significant decrease” and the “Closed Arm Entries” value (C57B16/J mice; 20 mg/kg PO, listed as BUS) was “decrease (BUS, 20)”. For the same compound, the “Total Entries” value (C57B16/J mice; 20 mg/kg PO, listed as BUS) was “decrease (BUS, 20)”, the “anxiolytic-like effect in the EPM” value (C57B16/J mice; [4]) was “failed to produce a significant anxiolytic-like effect” and the “Open Arm Time” value (C57B16/J mice; [4]) was “no effect”. For the same compound, the “Basal Rectal Temperature” value (129 svev mice [1]; [5]) was “decrease”, the “Temperature Change (stress-induced hyperthermia)” value (“Temperature Change” for short) (129 svev mice [1]; [5]) was “decrease” and the “Basal Rectal Temperature” value (129 svev mice [1]; [6]) was “significantly decreased”. For the same compound, the “Temperature Change” value (129 svev mice [1]; [6]) was “significantly decreased”, the “Frequency of Zone Crosses” value (129 svev mice [2]; reference buspirone PO) was “no change” and the “Percent Distance in Center” value (129 svev mice [2]; reference buspirone PO) was “no change”. For the same compound, the “Percent Time in Center” value (129 svev mice [2]; reference buspirone PO) was “no change”, the “Total Distance (Horizontal)” value (129 svev mice [2]; reference buspirone PO) was “no change” and the “Vertical Activity (Rearing)” value (129 svev mice [2]; reference buspirone PO) was “decreased the number of rears; also recorded: decrease”.

`CC(=O)Nc1cccc(N2CCN(CCCCNS(=O)(=O)CC3CCCCC3)CC2)c1` [Compound A, N-{3-[4-(4-Cyclohexylmethanesulfonylamino-butyl)-piperazin-1-yl]-phenyl}-acetamide HCl] was tested, and the “Closed Arm Entries” value (C57B16/J mice; 3 mg/kg PO) was “no change”, the “Total Entries” value (C57B16/J mice; 3 mg/kg PO) was “no change” and the “Open Arm Time” value (C57B16/J mice; 3 mg/kg PO, HCl) was “significant anxiolytic-like effect; also recorded: increase”. For the same compound, the “Proportion Open Arm Entries” value (C57B16/J mice; 3 mg/kg PO, HCl) was “significant anxiolytic-like effect; also recorded: increase”, the “Closed Arm Entries” value (C57B16/J mice; 10 mg/kg PO) was “no change” and the “Total Entries” value (C57B16/J mice; 10 mg/kg PO) was “no change”. For the same compound, the “Open Arm Time” value (C57B16/J mice; 10 mg/kg PO, HCl) was “did not reach statistical significance; also recorded: no change”, the “Proportion Open Arm Entries” value (C57B16/J mice; 10 mg/kg PO, HCl) was “did not reach statistical significance; also recorded: no change” and the “Closed Arm Entries” value (C57B16/J mice; 20 mg/kg PO) was “no change”. The “Total Entries” value (C57B16/J mice; 20 mg/kg PO) was “no change”, the “Open Arm Time” value (C57B16/J mice; 20 mg/kg PO, HCl) was “did not reach statistical significance; also recorded: no change” and the “Proportion Open Arm Entries” value (C57B16/J mice; 20 mg/kg PO, HCl) was “did not reach statistical significance; also recorded: no change”. The “Basal Rectal Temperature” value (129 svev mice [1]; 1 mg/kg PO, HCl) was “did not show significant effects; also recorded: no change”, the “Temperature Change” value (129 svev mice [1]; 1 mg/kg PO, HCl) was “did not show significant effects; also recorded: no change” and the “Basal Rectal Temperature” value (129 svev mice [1]; 3 mg/kg PO, HCl) was “did not show significant effects; also recorded: no change”. For the same compound, the “Temperature Change” value (129 svev mice [1]; 3 mg/kg PO, HCl) was “did not show significant effects; also recorded: no change”, the “Basal Rectal Temperature” value (129 svev mice [1]; 20 mg/kg PO, HCl) was “significant decrease” and the “Temperature Change” value (129 svev mice [1]; 20 mg/kg PO, HCl) was “significant decrease”. For the same compound, the “Frequency of Zone Crosses” value (129 svev mice [2]; 1 mg/kg PO) was “No change”, the “Percent Distance in Center” value (129 svev mice [2]; 1 mg/kg PO) was “No change” and the “Percent Time in Center” value (129 svev mice [2]; 1 mg/kg PO) was “No change”. For the same compound, the “Total Distance (Horizontal)” value (129 svev mice [2]; 1 mg/kg PO) was “No change”, the “Vertical Activity (Rearing)” value (129 svev mice [2]; 1 mg/kg PO) was “No change” and the “Frequency of Zone Crosses” value (129 svev mice [2]; 3 mg/kg PO) was “no change”. For the same compound, the “Percent Distance in Center” value (129 svev mice [2]; 3 mg/kg PO) was “no change”, the “Percent Time in Center” value (129 svev mice [2]; 3 mg/kg PO) was “no change” and the “Total Distance (Horizontal)” value (129 svev mice [2]; 3 mg/kg PO) was “no change”. The “Vertical Activity (Rearing)” value (129 svev mice [2]; 3 mg/kg PO) was “no change”, the “Frequency of Zone Crosses” value (129 svev mice [2]; 20 mg/kg PO) was “no change” and the “Percent Distance in Center” value (129 svev mice [2]; 20 mg/kg PO) was “no change”. The “Percent Time in Center” value (129 svev mice [2]; 20 mg/kg PO) was “no change”, the “Total Distance (Horizontal)” value (129 svev mice [2]; 20 mg/kg PO) was “no change” and the “Vertical Activity (Rearing)” value (129 svev mice [2]; 20 mg/kg PO) was “no change”. The “hyperlocomotor activity (Distance Traveled)” value (Coloboma mice; doses of 1 and 20 mg/kg PO, 30 min pretreatment) was “decreased the hyperlocomotor activity” and the antidepressive properties [3] was “did not appear to have antidepressive properties”.

In the case of `C[C@H](N)Cc1ccccc1` [d-Amphetamine, reference compound], the “locomotor activity (Distance Traveled)” value (Coloboma mice; 4 mg/kg IP, 15 min before the test) is reported as “significantly decreased”.
